{"source": "paper PMC3510490", "about": "“Structure of Actin-related protein 8 and its contribution to nucleosome binding” (Nucleic Acids Research, 2012)", "key": {"[1]": {"target": "T1, Homo sapiens Arp8 (Δ1–33) (Homo sapiens, UniProt Q9H981)", "T1 construct": "gene ACTR8; N-terminal 8xHis tag cleaved by PreScission protease; E. coli BL21(DE3); monomer", "T1 sequence (Q9H981 34-624, stated change not applied)": "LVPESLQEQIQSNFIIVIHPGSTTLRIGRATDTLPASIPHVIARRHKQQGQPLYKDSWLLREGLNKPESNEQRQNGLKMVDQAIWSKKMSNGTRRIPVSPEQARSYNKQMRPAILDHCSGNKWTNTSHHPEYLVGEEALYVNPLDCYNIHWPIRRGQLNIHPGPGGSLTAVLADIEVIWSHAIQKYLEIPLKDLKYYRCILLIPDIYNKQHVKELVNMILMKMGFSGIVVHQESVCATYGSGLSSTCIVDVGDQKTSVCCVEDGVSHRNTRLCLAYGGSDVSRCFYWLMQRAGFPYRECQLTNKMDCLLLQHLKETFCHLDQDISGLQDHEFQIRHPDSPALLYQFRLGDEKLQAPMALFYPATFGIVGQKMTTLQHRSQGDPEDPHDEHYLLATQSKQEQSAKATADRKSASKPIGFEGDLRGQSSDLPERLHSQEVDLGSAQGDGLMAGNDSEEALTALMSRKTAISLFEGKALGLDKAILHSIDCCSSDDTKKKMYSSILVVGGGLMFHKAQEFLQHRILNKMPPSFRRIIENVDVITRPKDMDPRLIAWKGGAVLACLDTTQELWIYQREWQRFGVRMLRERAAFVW", "experiment": "X-ray crystal structure, […] Å", "conditions": "ATP co-purified from expression host, not added; one metal ion (likely Mg2+); nucleotide-binding cleft; pH 6.1"}, "[2]": {"target": "T2, Saccharomyces cerevisiae INO80 sub-complex I (Arp8–Arp4–actin-HSA) (Saccharomyces cerevisiae, UniProt P60010+Q12386)", "T2 construct": "co-expressed Arp4, Arp8, actin and His6-Ino80(462-685) in HighFive insect cells; monomeric complex; with Actin-related protein 4; Chromatin-remodeling ATPase INO80", "experiment": "[…] phosphate release, TLC", "format": "biochemical", "conditions": "100 µM ATP with 5 nM [γ-32P]ATP (labelled compound), 2 mM MgCl2, pH 7.9, 30 °C; active subunit not resolved (Arp8 and/or actin)"}, "yeast Arp8": {"target": "T3, yeast Arp8 (Saccharomyces cerevisiae, UniProt Q12386)", "T3 construct": "recombinant from HighFive insect cells, prepared as described previously; monomer", "T3 sequence (Q12386 1-881)": "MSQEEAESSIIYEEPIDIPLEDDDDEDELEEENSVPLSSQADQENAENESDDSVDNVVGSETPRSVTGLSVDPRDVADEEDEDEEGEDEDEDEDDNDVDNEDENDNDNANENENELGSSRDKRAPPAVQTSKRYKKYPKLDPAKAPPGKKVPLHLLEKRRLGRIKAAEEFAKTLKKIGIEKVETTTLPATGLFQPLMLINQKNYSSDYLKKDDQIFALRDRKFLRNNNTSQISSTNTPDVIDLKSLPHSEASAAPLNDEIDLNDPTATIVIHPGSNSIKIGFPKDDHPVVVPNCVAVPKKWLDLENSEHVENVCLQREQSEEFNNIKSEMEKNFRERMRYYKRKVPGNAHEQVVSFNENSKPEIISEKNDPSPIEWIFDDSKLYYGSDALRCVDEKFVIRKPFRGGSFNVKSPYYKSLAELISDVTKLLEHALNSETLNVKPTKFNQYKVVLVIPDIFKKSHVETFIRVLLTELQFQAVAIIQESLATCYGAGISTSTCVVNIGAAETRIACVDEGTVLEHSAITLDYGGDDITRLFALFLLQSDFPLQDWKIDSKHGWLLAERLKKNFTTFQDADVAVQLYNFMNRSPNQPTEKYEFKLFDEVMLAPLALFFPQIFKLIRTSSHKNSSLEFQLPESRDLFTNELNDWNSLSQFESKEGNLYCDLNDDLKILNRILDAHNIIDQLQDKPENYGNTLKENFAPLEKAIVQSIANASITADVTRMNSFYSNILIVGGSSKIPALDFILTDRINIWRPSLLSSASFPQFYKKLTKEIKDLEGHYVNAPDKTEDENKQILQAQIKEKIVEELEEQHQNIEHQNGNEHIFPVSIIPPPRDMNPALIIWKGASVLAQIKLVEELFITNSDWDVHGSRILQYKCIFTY", "experiment": "[…] phosphate release, TLC", "format": "biochemical", "conditions": "100 µM ATP with 5 nM [γ-32P]ATP (labelled compound), 2 mM MgCl2, pH 7.9, 30 °C"}, "human Arp8": {"target": "T4, human Arp8 (Homo sapiens, UniProt Q9H981)", "T4 construct": "gene ACTR8; monomer", "T4 sequence (Q9H981 whole entry)": "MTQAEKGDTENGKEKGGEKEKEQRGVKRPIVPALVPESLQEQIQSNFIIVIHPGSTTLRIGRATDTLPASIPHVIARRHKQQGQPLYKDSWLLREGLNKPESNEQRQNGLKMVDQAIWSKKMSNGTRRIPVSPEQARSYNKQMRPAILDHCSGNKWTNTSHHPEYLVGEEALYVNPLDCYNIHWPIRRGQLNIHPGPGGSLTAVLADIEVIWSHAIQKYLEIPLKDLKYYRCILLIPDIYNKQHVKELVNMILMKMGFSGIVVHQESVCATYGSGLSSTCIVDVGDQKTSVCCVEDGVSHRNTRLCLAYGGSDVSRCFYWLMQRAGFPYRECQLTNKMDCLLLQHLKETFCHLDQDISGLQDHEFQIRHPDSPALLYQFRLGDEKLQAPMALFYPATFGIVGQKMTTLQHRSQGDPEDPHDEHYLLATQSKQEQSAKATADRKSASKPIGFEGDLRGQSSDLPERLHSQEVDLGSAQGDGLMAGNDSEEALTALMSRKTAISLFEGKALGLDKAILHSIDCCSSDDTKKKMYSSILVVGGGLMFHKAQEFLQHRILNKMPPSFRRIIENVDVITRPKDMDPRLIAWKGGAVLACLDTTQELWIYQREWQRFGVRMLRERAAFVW", "experiment": "[…] phosphate release, TLC", "format": "biochemical", "conditions": "100 µM ATP with 5 nM [γ-32P]ATP (labelled compound), 2 mM MgCl2, pH 7.9, 30 °C; construct (full-length or Δ1-33) not stated"}}}
{"compound": "Nc1ncnc2c1ncn2[C@@H]1O[C@H](COP(=O)(O)OP(=O)(O)OP(=O)(O)O)[C@@H](O)[C@H]1O", "note": "[ATP]", "values": [{"measurement": "X-ray crystal structure, 2.6 Å", "setting": "[1]", "value": "Electron density in the nucleotide-binding cleft of actin could clearly be assigned to ATP"}, {"measurement": "low basal ATPase activity", "setting": "[2]", "value": "sub-complex I (Arp8–Arp4–actin-HSA) also shows a low basal ATPase activity"}, {"measurement": "low basal ATPase activity", "setting": "yeast Arp8", "value": "yeast and human Arp8 possess a low basal ATPase activity"}, {"measurement": "low basal ATPase activity", "setting": "human Arp8", "value": "yeast and human Arp8 possess a low basal ATPase activity"}]}
